Data from paper PMC10057893, “Synthesis and Biological Evaluation of New Schiff Bases Derived from 4-Amino-5-(3-fluorophenyl)-1,2,4-triazole-3-thione” (Molecules, 2023).
Values after ≈ are worked out from the molar mass of the structure shown. Where two headings read alike, the source gives them in different places.

Columns and labels:
[1] = tested on: yeast reference strains (Candida spp.); experiment: Positive control antifungal, broth microdilution MIC; assay type: cell-based; details: range over yeast reference strains
Experimental: The reference antibiotics used during our studies for the selected species of reference bacteria were ciprofloxacin and cefuroxime (Merck KGaA, Darmstadt, Germany). Nystatin (Merck KGaA, Darmstadt, Germany), a known antifungal antibiotic, was used as a positive control for Candida spp.
All reference antimicrobials against bacteria or fungi were tested in a final concentration range from 0.0049 to 10 µg/mL. The tested Schiff bases were two-fold diluted in the concentration range from 0.49 to 1000 μg/mL in culture broth medium for bacteria or fungi. The medium with DMSO at the final concentrations and without the tested Schiff bases served as a control—no microbial growth inhibition was observed. Three types of control were also carried out simultaneously: (1) serial dilution of the tested Schiff bases in broth medium (without bacteria or fungi) in the same concentration range, (2) a growth control for each strain in broth medium and agar medium for bacteria or fungi, and (3) a negative control of sterile broth or agar medium. […]
After incubation, 5 μL of the broth media cultured with bacteria or fungi were removed from each well of the plates used in the MIC experiments. […] After incubation, a visual reading of MBC or MFC values was made. […]

[2] = tested on: Klebsiella pneumoniae ATCC 13883; experiment: Broth microdilution MIC/MBC, antibacterial; assay type: cell-based; details: ATCC13883, Klebsiella pneumoniae ATCC 13883
Experimental: (§1) The minimal inhibitory concentration (MIC) was determined with the microdilution technique using 96-well polystyrene microplates (Medlab, Poland), as indicated by the European Committee on Antimicrobial Susceptibility Testing (EUCAST) guidelines. In this process, stock solutions of each tested Schiff base dissolved in dimethylsulphoxide (DMSO, Stanlab, Poland) were used at a concentration of 50 mg/mL. Before in vitro antibacterial activity detection, the basic concentration of 1000 µg/mL of each compound was prepared with Mueller–Hinton broth medium (MHB, BioMaxima, Lublin, Poland). The experiment was prepared using Mueller–Hinton broth medium in 96-well microplates. A series of two-fold dilutions of the tested compounds in the concentration range from 0.49 to 1000 μg/mL was made in culture broth medium. Then, 2 μL of bacterial inoculum with a density of 0.5 McFarland standard was added to each well. Each well was filled with a total volume of 100 μL. Then, the microtiter plates were incubated for 18 ± 2 h at 35 °C. After the incubation, the results were spectrophotometrically determined in Biotek ELx800 (Biokom, Janki, Poland) at 600 nm (OD600). The lowest concentration of the tested compounds with the absence of bacterial growth was determined as an MIC. Three replicates for each strain and compound were performed.
(§2) After incubation, 5 μL of the broth media cultured with bacteria or fungi were removed from each well of the plates used in the MIC experiments. Next, they were culturd onto the surface of the MHA medium (BioMaxima, Lublin, Poland) plate for bacteria or MHA +2% glucose plate for yeasts. The inoculated plates were incubated in the conditions mentioned above. After incubation, a visual reading of MBC or MFC values was made. […] Three replicates for each strain and compound were performed.

[3] = tested on: Bacillus subtilis ATCC 6633; experiment: Broth microdilution MIC/MBC, antibacterial; assay type: cell-based; details: ATCC6633
Experimental: as §1, §2

[4] = tested on: Pseudomonas aeruginosa ATCC 27853; experiment: Broth microdilution MIC/MBC, antibacterial; assay type: cell-based; details: ATCC27853
Experimental: as §1, §2

[5] = tested on: Staphylococcus aureus ATCC 6538; experiment: Broth microdilution MIC/MBC, antibacterial; assay type: cell-based; details: ATCC6538
Experimental: as §1, §2

[6] = tested on: Micrococcus luteus ATCC 10240; experiment: Broth microdilution MIC/MBC, antibacterial; assay type: cell-based; details: ATCC10240
Experimental: as §1, §2

[7] = tested on: Staphylococcus epidermidis ATCC 12228; experiment: Broth microdilution MIC/MBC, antibacterial; assay type: cell-based; details: ATCC12228
Experimental: as §1, §2

[8] = tested on: Escherichia coli ATCC 25922; experiment: Broth microdilution MIC/MBC, antibacterial; assay type: cell-based; details: ATCC25922, Escherichia coli ATCC 25922
Experimental: as §1, §2

MTT cell viability assay = assay type: cell-based; details: human, HaCaT cells (immortal keratinocytes), HaCaT normal cell line, read-out: Cytotoxic activity IC50 (converted)
Experimental: (§3) All the cell lines were purchased from the American Type Culture Collection (ATCC, Rockville, MD, USA) and cultured in strictly defined conditions according to the recommended ATCC protocol. The PC3 cells were cultured in RPMI 1640 (Roswell Park Memorial Institute, Biowest SAS, Nuaillé, France), while the MDA-MB-231 and HaCaT cells were maintained in DMEM (Dulbecco’s Modified Eagle’s Medium, Biowest SAS, Nuaillé, France) supplemented with 1% streptomycin and penicillin and in 10% heat-inactivated fetal bovine serum (FBS, Gibco BRL San Francisco, CA, USA) with 1% streptomycin and penicillin. The cells were incubated in a 37 °C/5% CO2 humidified incubator. They were cultured until 80–90% confluence was achieved. Then, they were harvested by treatment with 0.25% trypsin-0.02% EDTA (Gibco BRL, San Francisco, CA, USA) and used in the experiments. Untreated cells were used as a control. […] After 24 h of incubation, the culture medium was replaced with a fresh medium. […] Then, the medium was aspirated and formed formazan crystals were solubilized by adding isopropanol-DMSO mixture (1:1 vol). The intensity of the dissolved crystals was measured using a UVM 340 reader (ASYS Hitech GmbH, Eugendorf, Austria) at a wavelength of 570 nm. Cell viability was estimated by the percentage of MTT reduction in cells to which the tested compounds were added, compared to the control sample, where only the medium was added. The experiments were repeated three times. The IC50 was calculated using GraphPad Prism 9.0.0 (GraphPad Software).

MDA-MB-231 = experiment: MTT cell viability assay; assay type: cell-based, human; details: Homo sapiens, MDA-MB-231, MTT, read-out: Cytotoxic activity IC50
Experimental: as §3

PC3 = experiment: MTT cell viability assay; assay type: cell-based, human; details: Homo sapiens, PC-3, PC3, MTT, read-out: Cytotoxic activity IC50
Experimental: as §3

[9] = tested on: Candida lusitaniae ATCC 3449; experiment: Broth microdilution MIC/MFC, antifungal; assay type: cell-based; details: Clavispora lusitaniae, ATCC3449
Experimental: (§4) To determine the antifungal activity of the newly synthesized Schiff bases against the reference strains of Candida spp., the broth microdilution method was used according to the EUCAST [52] and Clinical and Laboratory Standards Institute (CLSI) guidelines with some modifications to the medium. Before in vitro antifungal activity detection, the basic concentration of 1000 µg/mL of each compound was prepared with Mueller–Hinton broth (BioMaxima, Lublin, Poland) supplemented with 2% glucose (MHB+2% glucose). […] The final concentrations of the Schiff bases ranged from […] to 1000 µg/mL. All the reference strains of Candida spp. used were first subcultured to the Mueller–Hinton agar medium (BioMaxima, Lublin, Poland) with 2% glucose (MHA +2% glucose) at 37 °C for 24 h. Next, 2 µL of appropriate fungal suspensions was added to each well containing 100 µL of MHB + 2% glucose and the various concentrations of the tested Schiff bases.
as §2

Candida auris CDC B11903 = experiment: Broth microdilution MIC/MFC, antifungal; assay type: cell-based; details: Candidozyma auris, CDCB11903
Experimental: as §4, §2

[10] = tested on: Candida glabrata ATCC 15126; experiment: Broth microdilution MIC/MFC, antifungal; assay type: cell-based; details: Nakaseomyces glabratus, ATCC15126
Experimental: as §4, §2

[11] = tested on: Candida glabrata ATCC 90030; experiment: Broth microdilution MIC/MFC, antifungal; assay type: cell-based; details: Nakaseomyces glabratus, ATCC90030
Experimental: as §4, §2

[12] = tested on: Candida tropicalis ATCC 1369; experiment: Broth microdilution MIC/MFC, antifungal; assay type: cell-based; details: ATCC1369
Experimental: as §4, §2

[13] = tested on: Candida albicans ATCC 10231; experiment: Broth microdilution MIC/MFC, antifungal; assay type: cell-based; details: for MIC: ATCC10231; for MFC: ATCC10231, read-out: MFC
Experimental: as §4, §2

[14] = tested on: Candida krusei ATCC 14243; experiment: Broth microdilution MIC/MFC, antifungal; assay type: cell-based; details: Pichia kudriavzevii, ATCC14243
Experimental: as §4, §2

MIC [2]	MIC [3]	MIC [4]	MIC [5]	MIC [6]	MIC [7]	MIC [8]	melting point	MIC [9]	MIC (Candida auris CDC B11903)	MIC [10]	MIC [11]	MIC [12]	Structure (SMILES)	IC50 at 72 h (MTT cell viability assay; 72 h (table footnote))	IC50 at 72 h (MTT cell viability assay; same value in µg/mL)	IC50 (MDA-MB-231; 72 h (table footnote))	IC50 (MDA-MB-231; same value in µg/mL)	IC50 (PC3; 72 h (table footnote))	IC50 (PC3; same value in µg/mL)	MFC [11]	also measured
													C[C@@H]1[C@H](O)[C@@H](C)/C=C/C=C/CC/C=C/C=C/C=C/C=C/C(O[C@H]2O[C@H](C)[C@@H](O)[C@H](N)[C@@H]2O)CC2O[C@](O)(CC(O)C(O)CCC(O)CC(O)CC(O)CC(=O)O[C@H]1C)CC(O)C2C(=O)O (stereo partly drawn) [Nystatin]								MIC [1]: 0.24 to 0.48 µg/mL; MBC ([1]; printed MIC = MBC): 0.24 to 0.48 µg/mL
> 1000 µg/mL	> 1000 µg/mL	> 1000 µg/mL	125 µg/mL (≈ 0.4 mM)	> 1000 µg/mL	1000 µg/mL (≈ 3.2 mM)	> 1000 µg/mL	223 to 224 °C	> 1000 µg/mL	1000 µg/mL (≈ 3.2 mM)	500 µg/mL (≈ 1.6 mM)	500 µg/mL (≈ 1.6 mM)	500 µg/mL (≈ 1.6 mM)	Cc1ccccc1C=Nn1c(-c2cccc(F)c2)n[nH]c1=S [RO10, 5-(3-fluorophenyl)-4-[(2-methylbenzylidene)amino]-2,4-dihydro-3H-1,2,4-triazole-3-thione]	> 100 µM	> 31.2 µg/mL	> 100 µM	> 31.2 µg/mL	> 100 µM	> 31.2 µg/mL	> 1000 µg/mL	MBC [5]: > 1000 µg/mL; MFC [10]: > 1000 µg/mL; MFC [12]: > 1000 µg/mL; MIC [13]: 500 µg/mL (≈ 1.6 mM); MFC [13]: > 1000 µg/mL; MIC [14]: > 1000 µg/mL
> 1000 µg/mL	> 1000 µg/mL	> 1000 µg/mL	> 1000 µg/mL	> 1000 µg/mL	> 1000 µg/mL	> 1000 µg/mL	203 to 204 °C	> 1000 µg/mL	1000 µg/mL (≈ 3.05 mM)	> 1000 µg/mL	500 µg/mL (≈ 1.52 mM)	1000 µg/mL (≈ 3.05 mM)	COc1cccc(C=Nn2c(-c3cccc(F)c3)n[nH]c2=S)c1 [RO11, 5-(3-fluorophenyl)-4-[(3-methoxybenzylidene)amino]-2,4-dihydro-3H-1,2,4-triazole-3-thione]	> 100 µM	> 38.8 µg/mL	> 100 µM	> 38.8 µg/mL	> 100 µM	> 38.8 µg/mL	> 1000 µg/mL	MIC [13]: 500 µg/mL (≈ 1.52 mM); MFC [13]: 1000 µg/mL (≈ 3.05 mM); MIC [14]: 1000 µg/mL (≈ 3.05 mM)
